Reference: ChEMBL document CHEMBL3351973, “4(α-l-rhamnosyloxy)-benzyl isothiocyanate, a bioactive phytochemical that attenuates secondary damage in an experimental model of spinal cord injury” (Bioorg Med Chem, 2015)
The source made the active and inactive calls.

How the values were obtained:
Assay type in all cases: functional, organism-based
Design in all cases: dose 10 mg/kg
Mus musculus [1] = test: Antiinflammatory activity in CD-1 mouse spinal cord injury model assessed as reduction in iNOS expression at 10 mg/kg, ip measured on day 7 by immunohistological analysis relative to control
Mus musculus [2] = test: Antiapoptotic activity in CD-1 mouse spinal cord injury model assessed as reduction in Bax level at 10 mg/kg, ip measured on day 7 by immunohistological analysis relative to control
Mus musculus [3] = test: Antiapoptotic activity in CD-1 mouse spinal cord injury model assessed as increase in Bcl-2 level at 10 mg/kg, ip measured on day 7 by immunohistological analysis relative to control
Mus musculus [4] = test: Antiapoptotic activity in CD-1 mouse spinal cord injury model assessed as reduction in caspase expression at 10 mg/kg, ip measured on day 7 by Western blotting analysis relative to control
Mus musculus [5] = test: Protection against injury in CD-1 mouse spinal cord injury model assessed as edema at 10 mg/kg, ip measured on day 7 by hematoxylin/eosin staining-based assay relative to control
Mus musculus [6] = test: Protection against injury in CD-1 mouse spinal cord injury model assessed as distribution of reticular fibre at 10 mg/kg, ip measured on day 7 by hematoxylin/eosin staining-based assay relative to control
Mus musculus [7] = test: Neuroprotective activity in CD-1 mouse spinal cord injury model assessed as alteration of white matter at 10 mg/kg, ip measured on day 7 by hematoxylin/eosin staining-based assay relative to control
Mus musculus [8] = test: Protection against injury in CD-1 mouse spinal cord injury model assessed as infiltration of leukocyte at 10 mg/kg, ip measured on day 7 by hematoxylin/eosin staining-based assay relative to control
Mus musculus [9] = test: Antiinflammatory activity in CD-1 mouse spinal cord injury model assessed as reduction of NF-kappaB-p65 level at 10 mg/kg, ip measured on day 7 by immunohistological analysis relative to control
Mus musculus [10] = test: Antiinflammatory activity in CD-1 mouse spinal cord injury model assessed as IkappaB-alpha expression at 10 mg/kg, ip measured on day 7 by Western blotting analysis relative to control

Measured: Activity

C[C@@H]1O[C@@H](Oc2ccc(CN=C=S)cc2)[C@H](O)[C@H](O)[C@H]1O
active: all assays above
